*1 amine or outer side, *2 acyl side, *3 side chain or, on linkers, in order; H or OH if unused. Where a SMILES comes first, the peptide text is derived from it. Side-chain parts run from the residue outwards. [ ]: non-standard residue; d: D form. The star is where a group is joined. X4 = CCCCCCCCCCCCCCCC(=O)N[C@@H](CCC(=O)N[C@@H](CCC(=O)NCCCC[C@H](NC(=O)CC[C@H](NC(=O)CC[C@H](NC(=O)CCC(=O)NCCCOCCOCCOCCCNC(=O)CCC(=O)NCCCOCCOCCOCCCNC(=O)CCC(=O)NCCCOCCOCCOCCCN*)C(=O)O)C(=O)O)C(N)=O)C(=O)O)C(=O)O; PEG12 = NCCOCCOCCOCCOCCOCCOCCOCCOCCOCCOCCOCCOCCC(=O)O; γGlu = O=C(O)[C@H](CCC(=O)[*:2])N[*:1]; 1Nal = N[C@@H](Cc1cccc2ccccc12)C(=O)O; Stearoyl = CCCCCCCCCCCCCCCCCC(=O)*; Palmitoyl = CCCCCCCCCCCCCCCC(=O)*; αMeK = C[C@](N)(CCCCN)C(=O)O; Nle = CCCC[C@H](N)C(=O)O; AEEA = NCCOCCOCC(=O)O; Aib = CC(C)(N)C(=O)O
Columns and labels:
[1] = Pharmacokinetic (PK) determination after i.v. or s.c. administration to rats; format: in vivo, Sprague Dawley rats; conditions: Sprague Dawley, Rat PK; for C0 / half-life: iv, 1 mg/kg i.v.; for C0: extrapolated plasma concentration at t=0, read-out: C0; for half-life / Cmax / Tmax / bioavailability: plasma; for half-life: read-out: T½ (converted); for Cmax / Tmax: sc, 3 mg/kg s.c.; for bioavailability: subcutaneous, 3 mg/kg s.c. vs 1 mg/kg i.v., dose-corrected AUC ratio
Protocol: Prior to the testing of a peptide batch, its purity (HPLC-UV) was determined. Dose was corrected for presence of salts, solvent and purity.
Sprague Dawley rats were dosed with study peptide at a dose of 1 mg/kg intravenously (i.v.) or 3 mg/kg subcutaneously (s.c.) as a solution in PBS (0.2 mg/ml and 0.6 mg/ml respectively).
Plasma samples were analyzed after protein precipitation via liquid chromatography mass spectrometry (LC/MS).
PK parameters and half-life were calculated using Phoenix 64 (WinNonlin 6.4)-Pharsight (Certara™) (non-compartment model). Values below the limit of quantification (BLQ) were replaced by zero for subsequent calculations and PK analysis.
T½: in-vivo half life, time required for test compound plasma concentration to be divided by two during the PK experiment.
C0: Extrapolated test compound plasma concentration at t=0 time point (i.v. route).
Cmax: maximal test compound plasma concentration at the indicated time point (s.c. route).
Tmax: Time point where Cmax is attained.
F %: s.c. vs i.v. bioavailability, dose-corrected area under curve (AUC) s.c. route divided by AUC i.v.

RXFP1 = biological target: T1, RXFP1 (Homo sapiens, UniProt Q9HBX9); test: OVCAR5 cAMP assay (HTRF), RXFP1 agonist activity; format: cell-based; conditions: for EC50: OVCAR5 cells, cAMP HTRF, read-out: EC50 (nM), OVCAR 5 cells (cAMP); for Emax: OVCAR-5, maximal cAMP relative to H2-relaxin maximum (100%), read-out: EMax, OVCAR 5 cells (cAMP)
T1 construct: OVCAR5 cells expressing endogenous RXFP1; endogenous in cells; host or cells: OVCAR5 cells
T1 sequence (Q9HBX9 1-757): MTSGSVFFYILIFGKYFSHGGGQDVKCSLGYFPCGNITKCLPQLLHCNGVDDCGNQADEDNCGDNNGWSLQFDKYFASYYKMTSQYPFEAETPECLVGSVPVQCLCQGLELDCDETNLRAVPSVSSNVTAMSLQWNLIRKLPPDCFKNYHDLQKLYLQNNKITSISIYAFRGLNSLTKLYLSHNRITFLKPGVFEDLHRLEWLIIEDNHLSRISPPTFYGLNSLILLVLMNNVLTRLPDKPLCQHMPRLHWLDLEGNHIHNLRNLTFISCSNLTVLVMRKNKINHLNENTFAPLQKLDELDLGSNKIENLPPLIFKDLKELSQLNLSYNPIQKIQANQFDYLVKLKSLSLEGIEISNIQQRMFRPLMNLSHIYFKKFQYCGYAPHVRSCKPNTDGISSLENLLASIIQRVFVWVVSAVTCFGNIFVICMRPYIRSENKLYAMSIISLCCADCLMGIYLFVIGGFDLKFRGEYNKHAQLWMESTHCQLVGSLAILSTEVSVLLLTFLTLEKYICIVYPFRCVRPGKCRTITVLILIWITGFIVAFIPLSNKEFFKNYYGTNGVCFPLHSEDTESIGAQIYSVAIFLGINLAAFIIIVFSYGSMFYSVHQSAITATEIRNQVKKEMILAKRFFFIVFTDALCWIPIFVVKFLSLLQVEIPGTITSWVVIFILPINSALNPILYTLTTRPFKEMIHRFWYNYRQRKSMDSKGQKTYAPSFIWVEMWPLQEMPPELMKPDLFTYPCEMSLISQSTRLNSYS
Outline: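 cAMP accumulation readout: after 1 mM IBMX for 40 min, endogenous-RXFP1 OVCAR5 cells got rising peptide concentrations without FCS, 30 min, 37° C, then lysis with HTRF cAMP reagents. Nonlinear regression gave EC50; Emax expressed relative to H2-relaxin maximum, same occasion.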

SMILES	C0 [1]	half-life [1]	Cmax [1]	Tmax [1]	bioavailability [1]	EC50 (RXFP1)	Emax (RXFP1)
CCCCCCCCCCCCCCCC(=O)N[C@@H](CCC(=O)N[C@@H](CCC(=O)N[C@@H](CCC(=O)NCCCC[C@H](NC(=O)CCOCCOCCOCCOCCOCCOCCOCCOCCOCCOCCOCCOCCNC(=O)[C@H](CCCCNC(C)=O)NC(=O)[C@H](CCCCN)NC(=O)[C@H](CCCNC(=N)N)NC(=O)C(C)(C)NC(=O)[C@H](CO)NC(=O)[C@H](Cc1c[nH]c2ccccc12)NC(=O)[C@@H](NC(=O)[C@H](CO)NC(=O)[C@H](CCCC)NC(=O)CNC(=O)[C@H](CCC(=O)O)NC(=O)C(C)(C)NC(=O)C(C)(C)NC(=O)[C@@H](NC(=O)[C@H](CCCCNC(C)=O)NC(=O)[C@H](C)NC(=O)[C@H](CCCNC(=N)N)NC(=O)[C@@H](NC(=O)[C@H](CCCCN)NC(=O)[C@H](CCC(=O)O)NC(=O)[C@H](CCCNC(=N)N)NC(=O)CNC(=O)[C@H](CCC(=O)O)NC(=O)[C@H](CC(C)C)NC(C)=O)C(C)C)[C@@H](C)CC)[C@@H](C)O)C(N)=O)C(=O)O)C(=O)O)C(=O)O [compound 26] (Ac-LEGREKVRAK(Ac)I[Aib][Aib]EG[Nle]STWS[Aib]RKK(Ac)[PEG12]K([γGlu-γGlu-γGlu-Palmitoyl])-NH2)	2330 nM	5.8 h	770 nM	8 h	72%	0.57 nM	85%
CCCCCCCCCCCCCCCC(=O)N[C@@H](CCC(=O)N[C@@H](CCC(=O)N[C@@H](CCC(=O)N[C@@H](CCC(=O)NCCCC[C@H](NC(=O)COCCOCCNC(=O)COCCOCCNC(=O)COCCOCCNC(=O)[C@H](CCCCNC(C)=O)NC(=O)[C@H](CCCCN)NC(=O)[C@H](CCCNC(=N)N)NC(=O)[C@](C)(CCCCN)NC(=O)[C@H](CO)NC(=O)[C@H](Cc1c[nH]c2ccccc12)NC(=O)[C@@H](NC(=O)[C@H](CO)NC(=O)[C@H](CCCC)NC(=O)CNC(=O)[C@H](CCC(=O)O)NC(=O)C(C)(C)NC(=O)C(C)(C)NC(=O)[C@@H](NC(=O)[C@H](CCCCNC(C)=O)NC(=O)[C@H](C)NC(=O)[C@H](CCCNC(=N)N)NC(=O)[C@@H](NC(=O)[C@H](CCCCN)NC(=O)[C@H](CCC(=O)O)NC(=O)[C@H](CCCNC(=N)N)NC(=O)CNC(=O)[C@H](CCC(=O)O)NC(=O)[C@H](CC(C)C)NC(C)=O)C(C)C)[C@@H](C)CC)[C@@H](C)O)C(N)=O)C(=O)O)C(=O)O)C(=O)O)C(=O)O [compound 17] (Ac-LEGREKVRAK(Ac)I[Aib][Aib]EG[Nle]STWS[αMeK]RKK(Ac)[AEEA][AEEA][AEEA]K([γGlu-γGlu-γGlu-γGlu-Palmitoyl])-NH2)	3500 nM	5.8 h	2400 nM	8 h	73%	0.17 nM	95%
CCCCCCCCCCCCCCCCCC(=O)N[C@@H](CCC(=O)N[C@@H](CCC(=O)N[C@@H](CCC(=O)NCCCC[C@H](NC(=O)CCOCCOCCOCCOCCOCCOCCOCCOCCOCCOCCOCCOCCNC(=O)[C@H](CCCCN)NC(=O)[C@H](CCCNC(=N)N)NC(=O)C(C)(C)NC(=O)[C@H](CO)NC(=O)[C@H](Cc1cccc2ccccc12)NC(=O)[C@@H](NC(=O)[C@H](CO)NC(=O)[C@H](CCCC)NC(=O)CNC(=O)[C@H](CCC(=O)O)NC(=O)C(C)(C)NC(=O)C(C)(C)NC(=O)[C@@H](NC(=O)[C@H](CCCCNC(C)=O)NC(=O)[C@H](C)NC(=O)[C@H](CCCNC(=N)N)NC(=O)[C@@H](NC(=O)[C@H](CCCCN)NC(=O)[C@H](CCC(=O)O)NC(=O)[C@H](CCCNC(=N)N)NC(=O)CNC(=O)[C@H](CCC(=O)O)NC(=O)[C@H](CC(C)C)NC(C)=O)C(C)C)[C@@H](C)CC)[C@@H](C)O)C(N)=O)C(=O)O)C(=O)O)C(=O)O [compound 45] (Ac-LEGREKVRAK(Ac)I[Aib][Aib]EG[Nle]ST[1Nal]S[Aib]RK[PEG12]K([γGlu-γGlu-γGlu-Stearoyl])-NH2)	2900 nM	2.88 h	2200 nM	7 h	65%	–	79%

Continued, values first:

C0 [1]	half-life [1]	Cmax [1]	Tmax [1]	bioavailability [1]	EC50 (RXFP1)	Emax (RXFP1)	SMILES
2600 nM	3.4 h	1200 nM	7 h	114%	0.02 nM	89%	CCCCCCCCCCCCCCCCCC(=O)N[C@@H](CCC(=O)N[C@@H](CCC(=O)N[C@@H](CCC(=O)N[C@@H](CCC(=O)NCCOCCOCC(=O)NCCOCCOCC(=O)NCCOCCOCC(=O)NCCCC[C@H](NC(=O)[C@H](CCCCNC(C)=O)NC(=O)[C@H](CCCCN)NC(=O)[C@H](CCCNC(=N)N)NC(=O)[C@](C)(CCCCN)NC(=O)[C@H](CO)NC(=O)[C@H](Cc1c[nH]c2ccccc12)NC(=O)[C@@H](NC(=O)[C@H](CO)NC(=O)[C@H](CCCC)NC(=O)CNC(=O)[C@H](CCC(=O)O)NC(=O)C(C)(C)NC(=O)C(C)(C)NC(=O)[C@@H](NC(=O)[C@H](CCCCNC(C)=O)NC(=O)[C@H](C)NC(=O)[C@H](CCCNC(=N)N)NC(=O)[C@@H](NC(=O)[C@H](CCCCN)NC(=O)[C@H](CCC(=O)O)NC(=O)[C@H](CCCNC(=N)N)NC(=O)CNC(=O)[C@H](CCC(=O)O)NC(=O)[C@H](CC(C)C)NC(C)=O)C(C)C)[C@@H](C)CC)[C@@H](C)O)C(N)=O)C(=O)O)C(=O)O)C(=O)O)C(=O)O [compound 82] (Ac-LEGREKVRAK(Ac)I[Aib][Aib]EG[Nle]STWS[αMeK]RKK(Ac)K([AEEA-AEEA-AEEA-γGlu-γGlu-γGlu-γGlu-Stearoyl])-NH2)
3040 nM	5.8 h	1890 nM	6 h	69%	0.01 nM	89%	CCCCCCCCCCCCCCCC(=O)N[C@@H](CCC(=O)N[C@@H](CCC(=O)NCCCC[C@H](NC(=O)CC[C@H](NC(=O)CC[C@H](NC(=O)CCC(=O)NCCCOCCOCCOCCCNC(=O)CCC(=O)NCCCOCCOCCOCCCNC(=O)CCC(=O)NCCCOCCOCCOCCCNC(=O)[C@H](CCCCNC(C)=O)NC(=O)[C@H](C)NC(=O)[C@H](CCCNC(=N)N)NC(=O)[C@](C)(CCCCN)NC(=O)[C@H](CO)NC(=O)[C@H](Cc1ccccc1)NC(=O)[C@@H](NC(=O)[C@H](CO)NC(=O)[C@H](CCCC)NC(=O)CNC(=O)[C@H](CCC(=O)O)NC(=O)C(C)(C)NC(=O)C(C)(C)NC(=O)[C@@H](NC(=O)[C@H](CCCCNC(C)=O)NC(=O)[C@H](C)NC(=O)[C@H](CCCNC(=N)N)NC(=O)[C@@H](NC(=O)[C@H](CCCCN)NC(=O)[C@H](CCC(=O)O)NC(=O)[C@H](CCCNC(=N)N)NC(=O)CNC(=O)[C@H](CCC(=O)O)NC(=O)[C@H](CC(C)C)NC(C)=O)C(C)C)[C@@H](C)CC)[C@@H](C)O)C(=O)O)C(=O)O)C(N)=O)C(=O)O)C(=O)O [compound 169] (Ac-LEGREKVRAK(Ac)I[Aib][Aib]EG[Nle]STFS[αMeK]RAK(Ac)-X4)
2900 nM	3 h	1300 nM	7 h	89%	–	88%	CCCCCCCCCCCCCCCCCC(=O)N[C@@H](CCC(=O)N[C@@H](CCC(=O)N[C@@H](CCC(=O)N[C@@H](CCC(=O)NCCOCCOCC(=O)NCCOCCOCC(=O)NCCOCCOCC(=O)NCCOCCOCC(=O)NCCCC[C@H](NC(=O)[C@H](CCCCN)NC(=O)[C@H](CCCCN)NC(=O)[C@H](CCCNC(=N)N)NC(=O)C(C)(C)NC(=O)[C@H](CO)NC(=O)[C@H](Cc1c[nH]c2ccccc12)NC(=O)[C@@H](NC(=O)[C@H](CO)NC(=O)[C@H](CCCC)NC(=O)CNC(=O)[C@H](CCC(=O)O)NC(=O)C(C)(C)NC(=O)C(C)(C)NC(=O)[C@@H](NC(=O)[C@H](CCCCNC(C)=O)NC(=O)[C@H](C)NC(=O)[C@H](CCCNC(=N)N)NC(=O)[C@@H](NC(=O)[C@H](CCCCN)NC(=O)[C@H](CCC(=O)O)NC(=O)[C@H](CCCNC(=N)N)NC(=O)CNC(=O)[C@H](CCC(=O)O)NC(=O)[C@H](CC(C)C)NC(C)=O)C(C)C)[C@@H](C)CC)[C@@H](C)O)C(N)=O)C(=O)O)C(=O)O)C(=O)O)C(=O)O [compound 91] (Ac-LEGREKVRAK(Ac)I[Aib][Aib]EG[Nle]STWS[Aib]RKKK([AEEA-AEEA-AEEA-AEEA-γGlu-γGlu-γGlu-γGlu-Stearoyl])-NH2)
